Reference: the kinase profiling compilation of Christmann-Franck et al. (2016)
Several values for one entry are separate records, joined by “and”; a condition that tells them apart may be missing. Equal values may be shown once.

Columns and labels:
Assay in all cases: radiometric filter-binding kinase assay, Kinase HotSpot
Settings in all cases: compound 0.5 µM; ATP 10 µM
[1] = target: PRKCB1 (human) (UniProt P05771)
[2] = target: MAPKAPK2 (human) (UniProt P49137)
[3] = target: PDGFRB (human) (UniProt P09619)
[4] = target: AURKC (human) (UniProt Q9UQB9)
Sequence of AURKC (human) (Q9UQB9 whole entry, looked up): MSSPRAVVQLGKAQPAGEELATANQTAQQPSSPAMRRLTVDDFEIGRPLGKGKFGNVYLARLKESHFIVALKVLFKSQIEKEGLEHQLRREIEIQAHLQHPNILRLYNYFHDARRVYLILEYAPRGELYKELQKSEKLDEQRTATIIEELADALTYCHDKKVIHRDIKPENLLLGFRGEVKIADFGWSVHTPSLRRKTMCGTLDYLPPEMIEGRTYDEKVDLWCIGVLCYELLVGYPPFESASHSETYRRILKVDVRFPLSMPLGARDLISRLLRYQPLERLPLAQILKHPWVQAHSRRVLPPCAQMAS

[5] = target: MAPK10 (human) (UniProt P53779)
[6] = target: PRKG1 (human) (UniProt Q13976)
[7] = target: PAK6 (human) (UniProt Q9NQU5)
[8] = target: CDK2 CCNE1 (human) (UniProt P24941+P24864)
[9] = target: HIPK3 (human) (UniProt Q9H422)
[10] = target: STK38 (human) (UniProt Q15208)
[11] = target: CSNK2A2 (human) (UniProt P19784)
[12] = target: TYRO3 (human) (UniProt Q06418)
Sequence of TYRO3 (human) (Q06418 whole entry, looked up): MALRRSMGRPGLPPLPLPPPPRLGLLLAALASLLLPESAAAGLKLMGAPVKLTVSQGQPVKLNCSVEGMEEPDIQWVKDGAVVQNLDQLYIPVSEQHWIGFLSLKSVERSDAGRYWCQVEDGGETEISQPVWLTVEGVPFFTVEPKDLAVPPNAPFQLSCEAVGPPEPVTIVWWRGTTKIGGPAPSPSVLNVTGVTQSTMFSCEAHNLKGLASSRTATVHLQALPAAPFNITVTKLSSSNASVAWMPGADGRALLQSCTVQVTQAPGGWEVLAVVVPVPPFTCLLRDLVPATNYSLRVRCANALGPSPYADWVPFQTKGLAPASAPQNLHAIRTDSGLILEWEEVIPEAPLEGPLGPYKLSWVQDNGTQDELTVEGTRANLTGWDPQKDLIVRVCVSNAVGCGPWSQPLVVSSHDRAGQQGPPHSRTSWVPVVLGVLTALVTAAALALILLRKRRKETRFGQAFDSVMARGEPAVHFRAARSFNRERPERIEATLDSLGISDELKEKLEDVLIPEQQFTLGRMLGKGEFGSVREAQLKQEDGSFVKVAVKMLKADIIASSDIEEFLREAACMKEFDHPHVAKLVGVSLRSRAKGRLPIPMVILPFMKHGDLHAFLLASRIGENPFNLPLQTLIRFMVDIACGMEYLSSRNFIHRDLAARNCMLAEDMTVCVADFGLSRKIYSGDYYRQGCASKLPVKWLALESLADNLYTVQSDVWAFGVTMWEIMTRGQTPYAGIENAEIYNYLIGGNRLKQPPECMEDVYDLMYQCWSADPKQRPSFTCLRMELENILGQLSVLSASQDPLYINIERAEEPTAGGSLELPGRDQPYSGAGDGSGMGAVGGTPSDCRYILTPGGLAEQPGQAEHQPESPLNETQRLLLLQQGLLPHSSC

[13] = target: TAOK1 (human) (UniProt Q7L7X3)
Sequence of TAOK1 (human) (Q7L7X3 whole entry, looked up): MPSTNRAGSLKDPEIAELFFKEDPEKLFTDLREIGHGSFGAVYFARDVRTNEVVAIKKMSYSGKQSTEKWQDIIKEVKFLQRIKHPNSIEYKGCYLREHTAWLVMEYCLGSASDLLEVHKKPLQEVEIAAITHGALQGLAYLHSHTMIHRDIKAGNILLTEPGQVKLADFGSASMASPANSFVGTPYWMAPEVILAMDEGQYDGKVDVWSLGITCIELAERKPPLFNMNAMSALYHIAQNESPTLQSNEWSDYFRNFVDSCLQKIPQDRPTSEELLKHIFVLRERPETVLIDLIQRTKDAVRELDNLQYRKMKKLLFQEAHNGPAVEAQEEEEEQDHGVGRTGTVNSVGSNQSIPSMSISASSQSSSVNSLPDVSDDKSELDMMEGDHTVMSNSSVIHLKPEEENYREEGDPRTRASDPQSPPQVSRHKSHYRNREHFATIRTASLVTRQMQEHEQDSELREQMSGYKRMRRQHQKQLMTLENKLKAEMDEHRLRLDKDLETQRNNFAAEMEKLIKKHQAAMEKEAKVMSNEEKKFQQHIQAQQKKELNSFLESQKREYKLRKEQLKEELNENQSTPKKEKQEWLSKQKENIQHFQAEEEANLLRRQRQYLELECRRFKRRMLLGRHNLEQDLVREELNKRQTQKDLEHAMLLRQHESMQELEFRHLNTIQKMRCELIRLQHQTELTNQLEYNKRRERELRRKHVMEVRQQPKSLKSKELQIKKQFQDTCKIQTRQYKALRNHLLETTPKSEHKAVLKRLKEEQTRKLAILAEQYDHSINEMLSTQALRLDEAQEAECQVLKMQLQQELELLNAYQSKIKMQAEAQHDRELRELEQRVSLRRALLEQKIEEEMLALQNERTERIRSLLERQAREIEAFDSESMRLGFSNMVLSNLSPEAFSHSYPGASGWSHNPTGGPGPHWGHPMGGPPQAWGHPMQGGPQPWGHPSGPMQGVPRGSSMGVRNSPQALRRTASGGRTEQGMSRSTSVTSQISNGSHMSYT

[14] = target: NUAK2 (human) (UniProt Q9H093)
[15] = target: PAK7 (human) (UniProt Q9P286)
[16] = target: OXSR1 (human) (UniProt O95747)
[17] = test system: ARAF (human), P10398 [Y301D/Y302D]
Sequence of ARAF (human), P10398 [Y301D/Y302D] (P10398 whole entry Y301D/Y302D, looked up): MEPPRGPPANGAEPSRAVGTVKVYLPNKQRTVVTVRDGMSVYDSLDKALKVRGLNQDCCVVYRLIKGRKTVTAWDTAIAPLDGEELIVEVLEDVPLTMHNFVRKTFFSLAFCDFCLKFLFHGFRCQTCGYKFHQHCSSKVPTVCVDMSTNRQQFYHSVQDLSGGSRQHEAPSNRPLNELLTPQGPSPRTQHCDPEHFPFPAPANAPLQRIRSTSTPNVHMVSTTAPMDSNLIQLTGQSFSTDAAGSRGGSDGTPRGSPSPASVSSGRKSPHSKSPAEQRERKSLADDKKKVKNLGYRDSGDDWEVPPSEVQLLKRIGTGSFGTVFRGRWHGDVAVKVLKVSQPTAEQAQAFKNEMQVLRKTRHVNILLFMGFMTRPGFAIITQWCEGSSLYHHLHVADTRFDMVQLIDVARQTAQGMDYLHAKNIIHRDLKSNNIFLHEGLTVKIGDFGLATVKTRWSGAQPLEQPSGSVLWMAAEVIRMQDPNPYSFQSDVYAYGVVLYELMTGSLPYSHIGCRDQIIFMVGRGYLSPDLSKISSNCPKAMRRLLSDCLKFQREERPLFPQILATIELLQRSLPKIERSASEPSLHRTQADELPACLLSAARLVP

[18] = target: MYO3B (human) (UniProt Q8WXR4)
[19] = target: CSNK1A1 (human) (UniProt P48729)
[20] = target: SIK2 (human) (UniProt Q9H0K1)
[21] = target: ULK3 (human) (UniProt Q6PHR2)
Sequence of ULK3 (human) (Q6PHR2 whole entry, looked up): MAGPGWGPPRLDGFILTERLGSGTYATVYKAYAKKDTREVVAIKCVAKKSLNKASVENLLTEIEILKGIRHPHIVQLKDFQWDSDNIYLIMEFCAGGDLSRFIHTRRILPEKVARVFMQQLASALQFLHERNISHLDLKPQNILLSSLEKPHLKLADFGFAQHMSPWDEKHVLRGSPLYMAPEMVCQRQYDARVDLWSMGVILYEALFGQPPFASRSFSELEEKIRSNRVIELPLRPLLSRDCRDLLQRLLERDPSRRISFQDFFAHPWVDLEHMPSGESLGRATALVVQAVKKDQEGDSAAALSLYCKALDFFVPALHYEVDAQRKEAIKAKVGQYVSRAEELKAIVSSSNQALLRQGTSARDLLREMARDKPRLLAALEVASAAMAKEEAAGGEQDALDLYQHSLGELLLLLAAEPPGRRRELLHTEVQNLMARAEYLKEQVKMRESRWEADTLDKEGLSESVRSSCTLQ

[22] = target: MAP3K8 (human) (UniProt P41279)
[23] = target: AKT1 (human) (UniProt P31749)
[24] = target: CDK6 CCND1 (human) (UniProt Q00534+P24385)
[25] = target: MAP2K2 (human) (UniProt P36507)
[26] = target: EGFR (human) (UniProt P00533)
Sequence of EGFR (human) (P00533 whole entry, looked up): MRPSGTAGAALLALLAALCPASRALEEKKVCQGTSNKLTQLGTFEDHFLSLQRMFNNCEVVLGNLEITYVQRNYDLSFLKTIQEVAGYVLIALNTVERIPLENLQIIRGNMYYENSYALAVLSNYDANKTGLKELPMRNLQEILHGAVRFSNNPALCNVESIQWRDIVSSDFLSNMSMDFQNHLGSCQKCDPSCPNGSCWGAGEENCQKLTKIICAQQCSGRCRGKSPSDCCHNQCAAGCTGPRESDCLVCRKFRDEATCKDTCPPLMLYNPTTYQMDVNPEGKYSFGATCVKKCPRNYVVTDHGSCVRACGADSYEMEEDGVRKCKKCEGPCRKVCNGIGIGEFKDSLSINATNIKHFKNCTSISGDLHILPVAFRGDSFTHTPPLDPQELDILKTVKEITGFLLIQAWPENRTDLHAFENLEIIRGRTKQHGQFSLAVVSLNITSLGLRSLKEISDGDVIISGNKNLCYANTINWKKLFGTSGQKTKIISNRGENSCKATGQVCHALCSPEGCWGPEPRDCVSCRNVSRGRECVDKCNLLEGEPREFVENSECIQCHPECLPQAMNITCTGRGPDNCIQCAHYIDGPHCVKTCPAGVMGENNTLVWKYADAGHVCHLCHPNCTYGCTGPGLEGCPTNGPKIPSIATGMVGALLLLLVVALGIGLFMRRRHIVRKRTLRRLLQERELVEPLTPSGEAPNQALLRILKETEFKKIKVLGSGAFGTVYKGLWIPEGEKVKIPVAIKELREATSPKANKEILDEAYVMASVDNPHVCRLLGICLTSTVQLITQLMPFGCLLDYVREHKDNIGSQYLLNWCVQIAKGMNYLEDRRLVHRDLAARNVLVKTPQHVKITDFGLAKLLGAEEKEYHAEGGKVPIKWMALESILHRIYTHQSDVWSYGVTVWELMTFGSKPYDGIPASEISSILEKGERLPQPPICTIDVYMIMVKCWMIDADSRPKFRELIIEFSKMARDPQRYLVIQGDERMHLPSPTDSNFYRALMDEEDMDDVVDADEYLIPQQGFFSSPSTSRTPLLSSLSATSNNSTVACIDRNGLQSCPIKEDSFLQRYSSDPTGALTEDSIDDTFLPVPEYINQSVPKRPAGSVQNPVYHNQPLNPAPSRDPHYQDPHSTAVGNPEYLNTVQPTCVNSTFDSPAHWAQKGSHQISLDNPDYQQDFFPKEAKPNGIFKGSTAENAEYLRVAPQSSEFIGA

[27] = target: PRKACG (human) (UniProt P22612)
[28] = target: MAPK3 (human) (UniProt P27361)
[29] = target: EPHA6 (human) (UniProt Q9UF33)
[30] = target: CLK2 (human) (UniProt P49760)
[31] = target: RPS6KA5 KD2 (human) (UniProt O75582)
[32] = target: PRKX (human) (UniProt P51817)
[33] = target: MST1R (human) (UniProt Q04912)
[34] = target: STK16 (human) (UniProt O75716)
Sequence of STK16 (human) (O75716 whole entry, looked up): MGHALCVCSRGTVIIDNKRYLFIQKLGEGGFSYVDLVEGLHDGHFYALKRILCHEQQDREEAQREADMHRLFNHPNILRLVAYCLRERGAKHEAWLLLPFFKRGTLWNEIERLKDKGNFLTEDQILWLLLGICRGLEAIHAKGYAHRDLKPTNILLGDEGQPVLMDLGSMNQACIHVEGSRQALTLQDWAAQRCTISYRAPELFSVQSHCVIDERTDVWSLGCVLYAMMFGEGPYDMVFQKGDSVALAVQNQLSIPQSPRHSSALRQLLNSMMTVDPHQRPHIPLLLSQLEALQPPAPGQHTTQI

[35] = target: TLK2 (human) (UniProt Q86UE8)
[36] = target: TNK2 (human) (UniProt Q07912)
[37] = target: STK10 (human) (UniProt O94804)
[38] = target: MELK (human) (UniProt Q14680)
[39] = target: ERBB2 (human) (UniProt P04626)
[40] = target: BRAF (human) (UniProt P15056)
[41] = target: ABL1 (human) (UniProt P00519)
[42] = target: STK33 (human) (UniProt Q9BYT3)

Q: Which results are given for `CSc1nc(-c2ccc(F)cc2)c(-c2ccnc(NC(C)c3ccccc3)c2)[nH]1` (centres undefined)?
A: residual activity [1]: 92.2%; residual activity [2]: 106%; residual activity [3]: 97.6%; residual activity [4]: 100%; residual activity [5]: 125%; residual activity [6]: 105%; residual activity [7]: 93.5%; residual activity [8]: 88%; residual activity [9]: 101%; residual activity [10]: 104%; residual activity [11]: 88.8%; residual activity [12]: 108%; residual activity [13]: 79.9%; residual activity [14]: 86.5%; residual activity [15]: 85.3%; residual activity [16]: 88.2%; residual activity [17]: 99%; residual activity [18]: 100%; residual activity [19]: 82.6%; residual activity [20]: 97.2%; residual activity [21]: 85.3%; residual activity [22]: 88.6%; residual activity [23]: 101%; residual activity [24]: 90.9%; residual activity [25]: 78.6%; residual activity [26]: 87.1%; residual activity [27]: 115%; residual activity [28]: 68%; residual activity [29]: 75.8%; residual activity [30]: 102%; residual activity [31]: 97.3%; residual activity [32]: 91.5%; residual activity [33]: 81.3%; residual activity [34]: 95.1%; residual activity [35]: 106%; residual activity [36]: 78.4%; residual activity [37]: 86.8%; residual activity [38]: 94.2%; residual activity [39]: 99.2%; residual activity [40]: 91.8%; residual activity [41]: 103%; residual activity [42]: 107%

Q: With `COc1ccc(-c2cnc3c(-c4ccsc4)cnn3c2)cc1` as the molecule, how does the residual activity [1] read?
A: The residual activity was 101%.

Q: What about the residual activity [2] of the same molecule?
A: Its residual activity is 95.8%.

Q: And the residual activity [3]?
A: Its residual activity is 63.4%.

Q: What about the residual activity [4] of the same molecule?
A: The residual activity was 75.3%.

Q: And the residual activity [6]?
A: The residual activity was 86.5% and 89.1%.

Q: And the residual activity [8]?
A: The residual activity was 82.8%.

Q: What about the residual activity [9] of the same molecule?
A: The residual activity was 103%.

Q: What about the residual activity [10] of the same molecule?
A: The residual activity was 102%.

Q: And the residual activity [11]?
A: The residual activity was 87.3%.

Q: What about the residual activity [12] of the same molecule?
A: Its residual activity is 91.8%.

Q: What about the residual activity [13] of the same molecule?
A: Its residual activity is 105%.

Q: What about the residual activity [14] of the same molecule?
A: Its residual activity is 138%.

Q: What about the residual activity [15] of the same molecule?
A: Its residual activity is 78.1%.

Q: And the residual activity [16]?
A: Its residual activity is 90.3%.

Q: And the residual activity [18]?
A: The residual activity was 84%.

Q: And the residual activity [19]?
A: The residual activity was 101%.

Q: What about the residual activity [20] of the same molecule?
A: The residual activity was 79.4%.

Q: What about the residual activity [21] of the same molecule?
A: The residual activity was 79.4%.

Q: What about the residual activity [22] of the same molecule?
A: The residual activity was 105%.

Q: And the residual activity [23]?
A: Its residual activity is 92.4%.

Q: And the residual activity [24]?
A: Its residual activity is 53.4%.

Q: And the residual activity [25]?
A: Its residual activity is 95.5%.

Q: And the residual activity [26]?
A: The residual activity was 92.3%.

Q: What about the residual activity [27] of the same molecule?
A: The residual activity was 93.9%.

Q: What about the residual activity [28] of the same molecule?
A: The residual activity was 99.5%.

Q: What about the residual activity [29] of the same molecule?
A: Its residual activity is 85.1%.

Q: And the residual activity [30]?
A: The residual activity was 83.8%.

Q: And the residual activity [31]?
A: Its residual activity is 90.3%.

Q: What about the residual activity [32] of the same molecule?
A: Its residual activity is 89.5%.

Q: What about the residual activity [33] of the same molecule?
A: The residual activity was 91.6%.

Q: What about the residual activity [34] of the same molecule?
A: Its residual activity is 66.9%.

Q: What about the residual activity [35] of the same molecule?
A: Its residual activity is 96.2%.

Q: And the residual activity [36]?
A: Its residual activity is 92.2%.

Q: What about the residual activity [37] of the same molecule?
A: Its residual activity is 81.6%.

Q: What about the residual activity [38] of the same molecule?
A: The residual activity was 73.6%.

Q: And the residual activity [39]?
A: Its residual activity is 102%.

Q: What about the residual activity [40] of the same molecule?
A: The residual activity was 85.9%.

Q: And the residual activity [41]?
A: The residual activity was 72.9%.

Q: And the residual activity [42]?
A: The residual activity was 71.6%.

Q: What does the source list for `Cc1ccc(NC(=O)c2ccc(CN3CCN(C)CC3)cc2)cc1Nc1nc(-c2cccnc2)cs1`?
A: residual activity [1]: 101%; residual activity [2]: 102%; residual activity [3]: 17.3%; residual activity [4]: 112%; residual activity [5]: 94.2%; residual activity [6]: 77.6% and 93.8%; residual activity [7]: 101%; residual activity [8]: 95%; residual activity [9]: 101%; residual activity [10]: 95.9%; residual activity [11]: 86.7%; residual activity [12]: 98.9%; residual activity [13]: 98.5%; residual activity [14]: 98.4%; residual activity [15]: 92%; residual activity [16]: 95.6%; residual activity [17]: 102%; residual activity [18]: 82.6%; residual activity [19]: 98.5%; residual activity [20]: 99.7%; residual activity [21]: 104%; residual activity [22]: 91.5%; residual activity [23]: 93.2%; residual activity [24]: 98%; residual activity [25]: 114%; residual activity [26]: 99.6%; residual activity [27]: 110%; residual activity [28]: 103%; residual activity [29]: 98.2%; residual activity [30]: 86%; residual activity [31]: 103%; residual activity [32]: 99.5%; residual activity [33]: 104%; residual activity [34]: 103%; residual activity [35]: 94.5%; residual activity [36]: 95.7%; residual activity [37]: 93.8%; residual activity [38]: 84.8%; residual activity [39]: 103%; residual activity [40]: 92.3%; residual activity [41]: 49.8%; residual activity [42]: 91.1%

Q: For `O=C(Nc1ccc(Cl)cc1)c1ccccc1NCc1ccncc1`, which residual activity [1] is on record?
A: Its residual activity is 98.1%.

Q: And the residual activity [2]?
A: Its residual activity is 97.6%.

Q: What about the residual activity [3] of the same molecule?
A: The residual activity was 45%.

Q: What about the residual activity [4] of the same molecule?
A: Its residual activity is 93.4%.

Q: What about the residual activity [5] of the same molecule?
A: Its residual activity is 89.9%.

Q: And the residual activity [6]?
A: Its residual activity is 86.8% and 92.3%.

Q: What about the residual activity [7] of the same molecule?
A: Its residual activity is 101%.

Q: What about the residual activity [8] of the same molecule?
A: Its residual activity is 94.3%.

Q: And the residual activity [9]?
A: Its residual activity is 98.7%.

Q: And the residual activity [10]?
A: Its residual activity is 97.5%.

Q: What about the residual activity [11] of the same molecule?
A: Its residual activity is 98.3%.

Q: What about the residual activity [12] of the same molecule?
A: Its residual activity is 105%.

Q: What about the residual activity [13] of the same molecule?
A: The residual activity was 110%.

Q: What about the residual activity [14] of the same molecule?
A: Its residual activity is 137%.

Q: And the residual activity [15]?
A: Its residual activity is 79.4%.

Q: What about the residual activity [16] of the same molecule?
A: The residual activity was 96.8%.

Q: What about the residual activity [17] of the same molecule?
A: The residual activity was 91.4%.

Q: And the residual activity [18]?
A: The residual activity was 82%.

Q: And the residual activity [19]?
A: The residual activity was 88.1%.

Q: What about the residual activity [20] of the same molecule?
A: Its residual activity is 94.8%.

Q: And the residual activity [21]?
A: The residual activity was 84.7%.

Q: And the residual activity [22]?
A: Its residual activity is 105%.

Q: What about the residual activity [23] of the same molecule?
A: Its residual activity is 97.6%.

Q: And the residual activity [24]?
A: The residual activity was 93.4%.

Q: And the residual activity [25]?
A: The residual activity was 102%.

Q: What about the residual activity [27] of the same molecule?
A: Its residual activity is 87.4%.

Q: What about the residual activity [28] of the same molecule?
A: Its residual activity is 102%.

Q: And the residual activity [29]?
A: Its residual activity is 89.8%.

Q: What about the residual activity [30] of the same molecule?
A: The residual activity was 91.8%.

Q: What about the residual activity [31] of the same molecule?
A: The residual activity was 92.5%.

Q: What about the residual activity [32] of the same molecule?
A: Its residual activity is 90.5%.

Q: What about the residual activity [33] of the same molecule?
A: Its residual activity is 90.5%.

Q: And the residual activity [34]?
A: The residual activity was 94.1%.

Q: What about the residual activity [35] of the same molecule?
A: Its residual activity is 97.3%.

Q: What about the residual activity [36] of the same molecule?
A: Its residual activity is 99.3%.

Q: What about the residual activity [37] of the same molecule?
A: Its residual activity is 81.8%.

Q: And the residual activity [38]?
A: The residual activity was 92.3%.

Q: What about the residual activity [39] of the same molecule?
A: The residual activity was 98.7%.

Q: What about the residual activity [40] of the same molecule?
A: The residual activity was 90%.

Q: What about the residual activity [41] of the same molecule?
A: Its residual activity is 99.7%.

Q: What about the residual activity [42] of the same molecule?
A: The residual activity was 86.4%.
